Measured values reported in patent US20230406843A1, “Progranulin Modulators and Methods of Using the Same” (ARKUDA THERAPEUTICS, priority 2020, published 2023).
Counter-ions that a name gives are not always drawn.

Tested on: progranulin
Assay: Progranulin induction cellular assay (ELISA of secreted mouse PGRN)
Format: cell-based
Settings: Mus musculus, BV-2, read-out: EC50 μM
Procedure, shortened: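 Secreted mouse PGRN in culture medium is measured by ELISA. Cells tested are BV-2, primary cortical neurons and primary microglia. BV-2 cells are plated a day ahead, allowed 1 h to attach, then incubated 16 h.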

Structure (SMILES)	EC50 [µM]
C#CCO[C@H]1CO[C@@H](C(=O)N2CCc3ccccc3[C@@H]2c2ccc(F)cc2)C[C@@H]1N [Compound 5541, ((2R,4S,5R)-4-amino-5-(prop-2-yn-1-yloxy)tetrahydro-2H-pyran-2-yl)((S)-1-(4-fluorophenyl)-3,4-dihydroisoquinolin-2(1H)-yl)methanone]	0.001

Same assay, conditions: progranulin induction assay; mouse pMG, primary cortical neurons and BV-2 cell lines named, cell type not given; ELISA-based readout; read-out: EC50

Structure (SMILES)	EC50 [µM]
CCC(=O)N(C)[C@H]1CO[C@@H](C(=O)N2CCc3ccccc3[C@@H]2c2ccc(F)cc2)C[C@@H]1N [Compound 5517, N-((3R,4S,6R)-4-amino-6-((S)-1-(4-fluorophenyl)-1,2,3,4-tetrahydroisoquinoline-2-carbonyl)tetrahydro-2H-pyran-3-yl)-N-methylpropionamide]	0.012
C[C@H]1CO[C@@H](C(=O)N2CCc3ccccc3[C@@H]2c2ccc(F)cc2)C[C@@H]1N [Compound 5518, ((2R,4S,5R)-4-amino-5-methyltetrahydro-2H-pyran-2-yl)((S)-1-(4-fluorophenyl)-3,4-dihydroisoquinolin-2(1H)-yl)methanone]	0.015
CS[C@H]1CO[C@@H](C(=O)N2CCc3ccccc3[C@@H]2c2ccc(F)cc2)C[C@@H]1N [Compound 5520, ((2R,4S,5R)-4-amino-5-(methylthio)tetrahydro-2H-pyran-2-yl)((S)-1-(4-fluorophenyl)-3,4-dihydroisoquinolin-2(1H)-yl)methanone]	0.004
CS(=O)(=O)[C@H]1CO[C@@H](C(=O)N2CCc3ccccc3[C@@H]2c2ccc(F)cc2)C[C@@H]1N [Compound 5523, ((2R,4S,5R)-4-amino-5-(methylsulfonyl)tetrahydro-2H-pyran-2-yl)((S)-1-(4-fluorophenyl)-3,4-dihydroisoquinolin-2(1H)-yl)methanone]	0.016
N[C@H]1C[C@H](C(=O)N2CCc3ccccc3[C@@H]2c2ccc(F)cc2)OC[C@@H]1OC1CCC1 [Compound 5525, ((2R,4S,5R)-4-amino-5-cyclobutoxytetrahydro-2H-pyran-2-yl)((S)-1-(4-fluorophenyl)-3,4-dihydroisoquinolin-2(1H)-yl)methanone]	0.0003
CN1C=N[C@H]2C[C@H](C(=O)N3CCc4ccccc4[C@@H]3c3ccc(F)cc3)OC[C@H]21 [Compound 5528, ((S)-1-(4-fluorophenyl)-3,4-dihydroisoquinolin-2(1H)-yl)((3aS,6R,7aS)-3-methyl-3,3a,4,6,7,7a-hexahydropyrano[3,4-d]imidazol-6-yl)methanone hydrochloride]	0.168
Cn1cnc2c1CO[C@@H](C(=O)N1CCc3ccccc3[C@@H]1c1ccc(F)cc1)C2 [Compound 5529, ((S)-1-(4-fluorophenyl)-3,4-dihydroisoquinolin-2(1H)-yl)((R)-3-methyl-3,4,6,7-tetrahydropyrano[3,4-d]imidazol-6-yl)methanone]	1.56
N[C@H]1C[C@H](C(=O)N2CCc3ccccc3[C@@H]2c2ccc(F)cc2)OC[C@@H]1OC1CC1 [Compound 5530, ((2R,4S,5R)-4-amino-5-cyclopropoxytetrahydro-2H-pyran-2-yl)((S)-1-(4-fluorophenyl)-3,4-dihydroisoquinolin-2(1H)-yl)methanone]	0.0003
N[C@H]1C[C@H](C(=O)N2CCc3ccccc3[C@@H]2c2ccc(F)cc2)OC[C@@H]1OCc1ccccc1 [Compound 5531, ((2R,4S,5R)-4-amino-5-(benzyloxy)tetrahydro-2H-pyran-2-yl)((S)-1-(4-fluorophenyl)-3,4-dihydroisoquinolin-2(1H)-yl)methanone]	0.088
CN1C(=O)CN[C@H]2C[C@H](C(=O)N3CCc4ccccc4[C@@H]3c3ccc(F)cc3)OC[C@@H]21 [Compound 5533, (4aR,7R,8aS)-7-((S)-1-(4-fluorophenyl)-1,2,3,4-tetrahydroisoquinoline-2-carbonyl)-4-methylhexahydro-2H-pyrano[3,4-b]pyrazin-3(4H)-one]	0.289
CCN1C(=O)CN[C@H]2C[C@H](C(=O)N3CCc4ccccc4[C@@H]3c3ccc(F)cc3)OC[C@@H]21 [Compound 5536, (4aR,7R,8aS)-4-ethyl-7-((S)-1-(4-fluorophenyl)-1,2,3,4-tetrahydroisoquinoline-2-carbonyl)hexahydro-2H-pyrano[3,4-b]pyrazin-3(4H)-one]	0.15
N[C@H]1C[C@H](C(=O)N2CCc3ccccc3[C@@H]2c2ccc(F)cc2)OC[C@@H]1NCC(F)(F)F [Compound 5539, ((2R,4S,5R)-4-amino-5-((2,2,2-trifluoroethyl)amino)tetrahydro-2H-pyran-2-yl)((S)-1-(4-fluorophenyl)-3,4-dihydroisoquinolin-2(1H)-yl)methanone]	0.001
O=C([C@H]1C[C@@H]2NCCS(=O)(=O)[C@H]2CO1)N1CCc2ccccc2[C@@H]1c1ccc(F)cc1 [Compound 5542, ((4aR,7R,8aS)-4,4-dioxidooctahydropyrano[3,4-b][1,4]thiazin-7-yl)((S)-1-(4-fluorophenyl)-3,4-dihydroisoquinolin-2(1H)-yl)methanone]	4.39
C#CCO[C@H]1COC(C(=O)N2CCc3ccccc3[C@@H]2c2ccc(F)cc2)C[C@@H]1NCCCOC (stereo partly drawn) [Compound 5546]	0.03
[NH-][S@@+2]1([O-])CCN[C@H]2C[C@H](C(=O)N3CCc4ccccc4[C@@H]3c3ccc(F)cc3)OC[C@@H]21 [Compound 5553, ((S)-1-(4-fluorophenyl)-3,4-dihydroisoquinolin-2(1H)-yl)((4R,4aR,7R,8aS)-4-imino-4-oxidooctahydro-2H-^4-pyrano[3,4-b][1,4]thiazin-7-yl)methanone]	1.02
CC[C@@H]1CN[C@H]2C[C@H](C(=O)N3CCc4ccccc4[C@@H]3c3ccc(F)cc3)OC[C@@H]2O1 [Compound 5564, ((3R,4aR,7R,8aS)-3-ethyloctahydropyrano[3,4-b][1,4]oxazin-7-yl)((S)-1-(4-fluorophenyl)-3,4-dihydroisoquinolin-2(1H)-yl)methanone]	0.004
COC[C@@H]1CN[C@H]2C[C@H](C(=O)N3CCc4ccccc4[C@@H]3c3ccc(F)cc3)OC[C@@H]2O1 [Compound 5566]	> 0.3
COCCN[C@H]1C[C@H](C(=O)N2CCc3ccccc3[C@@H]2c2ccc(F)cc2)OC[C@@H]1OC [Compound 5569, ((S)-1-(4-fluorophenyl)-3,4-dihydroisoquinolin-2(1H)-yl)((2R,4S,5R)-5-methoxy-4-((2-methoxyethyl)amino)tetrahydro-2H-pyran-2-yl)methanone]	> 0.3
CO[C@H]1CO[C@@H](C(=O)N2CCc3ccccc3[C@@H]2c2ccc(F)cc2)C[C@@H]1NCCC(F)(F)F [Compound 5570]	0.232
CO[C@H]1CO[C@@H](C(=O)N2CCc3ccccc3[C@@H]2c2ccc(F)cc2)C[C@@H]1N(C)C [Compound 5575, ((2R,4S,5R)-4-(dimethylamino)-5-methoxytetrahydro-2H-pyran-2-yl)((S)-1-(4-fluorophenyl)-3,4-dihydroisoquinolin-2(1H)-yl)methanone]	0.028

Next, values leading:

EC50 [µM]	Structure (SMILES)
0.041	C[C@@H]1CO[C@@H](C(=O)N2CCc3ccccc3[C@@H]2c2ccc(F)cc2)C[C@@H]1N [Compound 5519, ((2R,4S,5S)-4-amino-5-methyltetrahydro-2H-pyran-2-yl)((S)-1-(4-fluorophenyl)-3,4-dihydroisoquinolin-2(1H)-yl)methanone]
0.008	CCS[C@H]1CO[C@@H](C(=O)N2CCc3ccccc3[C@@H]2c2ccc(F)cc2)C[C@@H]1N [Compound 5521, ((2R,4S,5R)-4-amino-5-(ethylthio)tetrahydro-2H-pyran-2-yl)((S)-1-(4-fluorophenyl)-3,4-dihydroisoquinolin-2(1H)-yl)methanone]
0.016	CCS(=O)(=O)[C@H]1CO[C@@H](C(=O)N2CCc3ccccc3[C@@H]2c2ccc(F)cc2)C[C@@H]1N [Compound 5524, ((2R,4S,5R)-4-amino-5-(ethylsulfonyl)tetrahydro-2H-pyran-2-yl)((S)-1-(4-fluorophenyl)-3,4-dihydroisoquinolin-2(1H)-yl)methanone]
0.006	CC[C@H]1CO[C@@H](C(=O)N2CCc3ccccc3[C@@H]2c2ccc(F)cc2)C[C@@H]1N [Compound 5526, ((2R,4S,5R)-4-amino-5-ethyltetrahydro-2H-pyran-2-yl)((S)-1-(4-fluorophenyl)-3,4-dihydroisoquinolin-2(1H)-yl)methanone]
0.274	N[C@H]1C[C@H](C(=O)N2CCc3ccccc3[C@@H]2c2ccc(F)cc2)OC[C@@H]1Oc1ccccc1 [Compound 5527, ((2R,4S,5R)-4-amino-5-phenoxytetrahydro-2H-pyran-2-yl)((S)-1-(4-fluorophenyl)-3,4-dihydroisoquinolin-2(1H)-yl)methanone]
1.68	O=C1CN[C@H]2C[C@H](C(=O)N3CCc4ccccc4[C@@H]3c3ccc(F)cc3)OC[C@@H]2N1 [Compound 5532, (4aR,7R,8aS)-7-((S)-1-(4-fluorophenyl)-1,2,3,4-tetrahydroisoquinoline-2-carbonyl)hexahydro-2H-pyrano[3,4-b]pyrazin-3(4H)-one]
0.029	N[C@H]1C[C@H](C(=O)N2CCc3ccccc3[C@@H]2c2ccc(F)cc2)OC[C@@H]1CO [Compound 5537, ((2R,4S,5S)-4-amino-5-(hydroxymethyl)tetrahydro-2H-pyran-2-yl)((S)-1-(4-fluorophenyl)-3,4-dihydroisoquinolin-2(1H)-yl)methanone]
0.064	N[C@H]1C[C@H](C(=O)N2CCc3ccccc3[C@@H]2c2ccc(F)cc2)OC[C@H]1CO [Compound 5538, ((2R,4S,5R)-4-amino-5-(hydroxymethyl)tetrahydro-2H-pyran-2-yl)((S)-1-(4-fluorophenyl)-3,4-dihydroisoquinolin-2(1H)-yl)methanone]
> 0.3	CCC[C@@H]1CN[C@H]2C[C@H](C(=O)N3CCc4ccccc4[C@@H]3c3ccc(F)cc3)OC[C@@H]2O1 [Compound 5565]
0.07	CC(C)[C@@H]1CN[C@H]2C[C@H](C(=O)N3CCc4ccccc4[C@@H]3c3ccc(F)cc3)OC[C@@H]2O1 [Compound 5567]
0.025	CO[C@H]1CO[C@@H](C(=O)N2CCc3ccccc3[C@@H]2c2ccc(F)cc2)C[C@@H]1NCCO [Compound 5568]
> 0.3	CO[C@H]1CO[C@@H](C(=O)N2CCc3ccccc3[C@@H]2c2ccc(F)cc2)C[C@@H]1NCC(F)(F)F [Compound 5577]
